Assays:
OSR1 = molecular target: T1, OSR1 (Homo sapiens, UniProt O95747); assay: KINOMEscan; assay type: binding; conditions: read-out: Percent Control
T1 construct: purchased Eurofins DiscoverX KINOMEscan (scanMAX 468)

MRCKA = molecular target: T2, MRCKA (Homo sapiens, UniProt Q5VT25); assay: KINOMEscan; assay type: binding; conditions: read-out: Percent Control
T2 construct: purchased Eurofins DiscoverX KINOMEscan (scanMAX 468)

PKNB(M.tuberculosis) = molecular target: T3, PKNB(M.tuberculosis) (Mycobacterium tuberculosis, UniProt P9WI81); assay: KINOMEscan; assay type: binding; conditions: read-out: Percent Control
T3 construct: purchased Eurofins DiscoverX KINOMEscan (scanMAX 468)

PLK4 = molecular target: T4, PLK4 (Homo sapiens, UniProt O00444); assay: KINOMEscan; assay type: binding; conditions: read-out: Percent Control
T4 construct: purchased Eurofins DiscoverX KINOMEscan (scanMAX 468)

EPHA8 = molecular target: T5, EPHA8 (Homo sapiens, UniProt P29322); assay: KINOMEscan; assay type: binding; conditions: read-out: Percent Control
T5 construct: purchased Eurofins DiscoverX KINOMEscan (scanMAX 468)

[1] = molecular target: T6, ABL1(T315I)-phosphorylated (Homo sapiens, UniProt P00519, T315I); assay: KINOMEscan; assay type: binding; conditions: read-out: Percent Control
T6 construct: purchased Eurofins DiscoverX KINOMEscan (scanMAX 468)

ERBB4 = molecular target: T7, ERBB4 (Homo sapiens, UniProt Q15303); assay: KINOMEscan; assay type: binding; conditions: read-out: Percent Control
T7 construct: purchased Eurofins DiscoverX KINOMEscan (scanMAX 468)

HASPIN = molecular target: T8, HASPIN (Homo sapiens, UniProt Q8TF76); assay: KINOMEscan; assay type: binding; conditions: read-out: Percent Control
T8 construct: purchased Eurofins DiscoverX KINOMEscan (scanMAX 468)

KIT(V559D,T670I) = molecular target: T9, KIT(V559D,T670I) (Homo sapiens, UniProt P10721, T670I/V559D); assay: KINOMEscan; assay type: binding; conditions: read-out: Percent Control
T9 construct: purchased Eurofins DiscoverX KINOMEscan (scanMAX 468)

PRP4 = molecular target: T10, PRP4 (Homo sapiens, UniProt Q13523); assay: KINOMEscan; assay type: binding; conditions: read-out: Percent Control
T10 construct: purchased Eurofins DiscoverX KINOMEscan (scanMAX 468)

PIK3CA(C420R) = molecular target: T11, PIK3CA(C420R) (Homo sapiens, UniProt P42336, C420R); assay: KINOMEscan; assay type: binding; conditions: read-out: Percent Control
T11 construct: purchased Eurofins DiscoverX KINOMEscan (scanMAX 468)

EPHA4 = molecular target: T12, EPHA4 (Homo sapiens, UniProt P54764); assay: KINOMEscan; assay type: binding; conditions: read-out: Percent Control
T12 construct: purchased Eurofins DiscoverX KINOMEscan (scanMAX 468)

BRAF(V600E) = molecular target: T13, BRAF(V600E) (Homo sapiens, UniProt P15056, V600E); assay: KINOMEscan; assay type: binding; conditions: read-out: Percent Control
T13 construct: purchased Eurofins DiscoverX KINOMEscan (scanMAX 468)

panel of 468 kinases = assay: KINOMEscan, whole panel selectivity score; assay type: binding, human; conditions: 1 µM; non-mutant kinases with %Ctrl < 25 / 403 non-mutant kinases tested
LKB1 = molecular target: T14, LKB1 (Homo sapiens, UniProt Q15831); assay: KINOMEscan; assay type: binding; conditions: read-out: Percent Control
T14 construct: purchased Eurofins DiscoverX KINOMEscan (scanMAX 468)

DRAK1 = molecular target: T15, DRAK1 (Homo sapiens, UniProt Q9UEE5); assay: KINOMEscan; assay type: binding; conditions: read-out: Percent Control
T15 construct: purchased Eurofins DiscoverX KINOMEscan (scanMAX 468)

[2] = molecular target: T16, TYK2(JH1domain-catalytic) (Homo sapiens, UniProt P29597); assay: KINOMEscan; assay type: binding; conditions: read-out: Percent Control
T16 construct: TYK2(JH1domain-catalytic); purchased Eurofins DiscoverX KINOMEscan (scanMAX 468)

[3] = molecular target: T17, RPS6KA4(Kin.Dom.1-N-terminal) (Homo sapiens, UniProt O75676); assay: KINOMEscan; assay type: binding; conditions: read-out: Percent Control
T17 construct: RPS6KA4(Kin.Dom.1-N-terminal); purchased Eurofins DiscoverX KINOMEscan (scanMAX 468)

EPHB6 = molecular target: T18, EPHB6 (Homo sapiens, UniProt O15197); assay: KINOMEscan; assay type: binding; conditions: read-out: Percent Control
T18 construct: purchased Eurofins DiscoverX KINOMEscan (scanMAX 468)

GCN2(Kin.Dom.2,S808G) = molecular target: T19, GCN2(Kin.Dom.2,S808G) (Homo sapiens, UniProt Q9P2K8, S808G); assay: KINOMEscan; assay type: binding; conditions: read-out: Percent Control
T19 construct: GCN2(Kin.Dom.2,S808G); purchased Eurofins DiscoverX KINOMEscan (scanMAX 468)

BRAF = molecular target: T20, BRAF (Homo sapiens, UniProt P15056); assay: KINOMEscan; assay type: binding; conditions: read-out: Percent Control
T20 construct: purchased Eurofins DiscoverX KINOMEscan (scanMAX 468)

TAOK3 = molecular target: T21, TAOK3 (Homo sapiens, UniProt Q9H2K8); assay: KINOMEscan; assay type: binding; conditions: read-out: Percent Control
T21 construct: purchased Eurofins DiscoverX KINOMEscan (scanMAX 468)

MEK5 = molecular target: T22, MEK5 (Homo sapiens, UniProt Q13163); assay: KINOMEscan; assay type: binding; conditions: read-out: Percent Control
T22 construct: purchased Eurofins DiscoverX KINOMEscan (scanMAX 468)

PRKCI = molecular target: T23, PRKCI (Homo sapiens, UniProt P41743); assay: KINOMEscan; assay type: binding; conditions: read-out: Percent Control
T23 construct: purchased Eurofins DiscoverX KINOMEscan (scanMAX 468)

PIK4CB = molecular target: T24, PIK4CB (Homo sapiens, UniProt Q9UBF8); assay: KINOMEscan; assay type: binding; conditions: read-out: Percent Control
T24 construct: purchased Eurofins DiscoverX KINOMEscan (scanMAX 468)

FAK = molecular target: T25, FAK (Homo sapiens, UniProt Q05397); assay: KINOMEscan; assay type: binding; conditions: read-out: Percent Control
T25 construct: purchased Eurofins DiscoverX KINOMEscan (scanMAX 468)

PIK3CA = molecular target: T26, PIK3CA (Homo sapiens, UniProt P42336); assay: KINOMEscan; assay type: binding; conditions: read-out: Percent Control
T26 construct: purchased Eurofins DiscoverX KINOMEscan (scanMAX 468)

AKT2 = molecular target: T27, AKT2 (Homo sapiens, UniProt P31751); assay: KINOMEscan; assay type: binding; conditions: read-out: Percent Control
T27 construct: purchased Eurofins DiscoverX KINOMEscan (scanMAX 468)

FRK = molecular target: T28, FRK (Homo sapiens, UniProt P42685); assay: KINOMEscan; assay type: binding; conditions: read-out: Percent Control
T28 construct: purchased Eurofins DiscoverX KINOMEscan (scanMAX 468)

TNNI3K = molecular target: T29, TNNI3K (Homo sapiens, UniProt Q59H18); assay: KINOMEscan; assay type: binding; conditions: read-out: Percent Control
T29 construct: purchased Eurofins DiscoverX KINOMEscan (scanMAX 468)

ACVR1B = molecular target: T30, ACVR1B (Homo sapiens, UniProt P36896); assay: KINOMEscan; assay type: binding; conditions: read-out: Percent Control
T30 construct: purchased Eurofins DiscoverX KINOMEscan (scanMAX 468)

IRAK1 = molecular target: T31, IRAK1 (Homo sapiens, UniProt P51617); assay: KINOMEscan; assay type: binding; conditions: read-out: Percent Control
T31 construct: purchased Eurofins DiscoverX KINOMEscan (scanMAX 468)

PIM3 = molecular target: T32, PIM3 (Homo sapiens, UniProt Q86V86); assay: KINOMEscan; assay type: binding; conditions: read-out: Percent Control
T32 construct: purchased Eurofins DiscoverX KINOMEscan (scanMAX 468)

CAMK1B = molecular target: T33, CAMK1B (Homo sapiens, UniProt Q6P2M8); assay: KINOMEscan; assay type: binding; conditions: read-out: Percent Control
T33 construct: purchased Eurofins DiscoverX KINOMEscan (scanMAX 468)

ERK3 = molecular target: T34, ERK3 (Homo sapiens, UniProt Q16659); assay: KINOMEscan; assay type: binding; conditions: read-out: Percent Control
T34 construct: purchased Eurofins DiscoverX KINOMEscan (scanMAX 468)

CAMK1D = molecular target: T35, CAMK1D (Homo sapiens, UniProt Q8IU85); assay: KINOMEscan; assay type: binding; conditions: read-out: Percent Control
T35 construct: purchased Eurofins DiscoverX KINOMEscan (scanMAX 468)

MAST1 = molecular target: T36, MAST1 (Homo sapiens, UniProt Q9Y2H9); assay: KINOMEscan; assay type: binding; conditions: read-out: Percent Control
T36 construct: purchased Eurofins DiscoverX KINOMEscan (scanMAX 468)

LRRK2 = molecular target: T37, LRRK2 (Homo sapiens, UniProt Q5S007); assay: KINOMEscan; assay type: binding; conditions: read-out: Percent Control
T37 construct: purchased Eurofins DiscoverX KINOMEscan (scanMAX 468)

EPHA7 = molecular target: T38, EPHA7 (Homo sapiens, UniProt Q15375); assay: KINOMEscan; assay type: binding; conditions: read-out: Percent Control
T38 construct: purchased Eurofins DiscoverX KINOMEscan (scanMAX 468)

EPHB4 = molecular target: T39, EPHB4 (Homo sapiens, UniProt P54760); assay: KINOMEscan; assay type: binding; conditions: read-out: Percent Control
T39 construct: purchased Eurofins DiscoverX KINOMEscan (scanMAX 468)

ASK1 = molecular target: T40, ASK1 (Homo sapiens, UniProt Q99683); assay: KINOMEscan; assay type: binding; conditions: read-out: Percent Control
T40 construct: purchased Eurofins DiscoverX KINOMEscan (scanMAX 468)

T3 sequence (P9WI81 whole entry): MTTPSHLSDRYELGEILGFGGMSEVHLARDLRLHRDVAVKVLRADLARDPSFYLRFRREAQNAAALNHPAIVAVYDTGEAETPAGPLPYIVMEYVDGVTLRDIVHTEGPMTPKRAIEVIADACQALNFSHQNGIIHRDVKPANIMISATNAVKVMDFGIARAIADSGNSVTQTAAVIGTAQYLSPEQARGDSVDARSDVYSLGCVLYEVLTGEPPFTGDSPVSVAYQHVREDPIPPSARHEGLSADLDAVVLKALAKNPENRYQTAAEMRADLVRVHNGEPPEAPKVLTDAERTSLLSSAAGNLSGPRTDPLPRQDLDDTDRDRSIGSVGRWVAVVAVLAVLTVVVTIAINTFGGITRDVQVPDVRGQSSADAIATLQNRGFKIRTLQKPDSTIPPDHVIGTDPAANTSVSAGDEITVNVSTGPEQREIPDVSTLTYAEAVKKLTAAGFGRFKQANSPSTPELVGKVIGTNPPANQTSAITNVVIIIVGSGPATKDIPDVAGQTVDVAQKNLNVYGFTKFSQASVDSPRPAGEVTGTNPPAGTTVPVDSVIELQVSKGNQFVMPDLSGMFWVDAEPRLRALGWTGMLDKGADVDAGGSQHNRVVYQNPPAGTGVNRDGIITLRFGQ
T17 sequence (O75676 1-371 limits assumed): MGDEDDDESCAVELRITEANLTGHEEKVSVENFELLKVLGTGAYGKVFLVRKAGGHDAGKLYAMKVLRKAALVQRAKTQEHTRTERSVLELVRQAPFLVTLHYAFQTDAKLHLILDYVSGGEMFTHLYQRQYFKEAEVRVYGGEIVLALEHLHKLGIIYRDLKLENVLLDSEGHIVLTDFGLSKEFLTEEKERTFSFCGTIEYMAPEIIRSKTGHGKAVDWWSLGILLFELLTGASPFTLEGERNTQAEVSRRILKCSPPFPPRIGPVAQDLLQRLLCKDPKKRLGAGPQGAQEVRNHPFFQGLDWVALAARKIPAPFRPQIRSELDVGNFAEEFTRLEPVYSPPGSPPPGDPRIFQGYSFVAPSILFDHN
T12 sequence (P54764 20-986): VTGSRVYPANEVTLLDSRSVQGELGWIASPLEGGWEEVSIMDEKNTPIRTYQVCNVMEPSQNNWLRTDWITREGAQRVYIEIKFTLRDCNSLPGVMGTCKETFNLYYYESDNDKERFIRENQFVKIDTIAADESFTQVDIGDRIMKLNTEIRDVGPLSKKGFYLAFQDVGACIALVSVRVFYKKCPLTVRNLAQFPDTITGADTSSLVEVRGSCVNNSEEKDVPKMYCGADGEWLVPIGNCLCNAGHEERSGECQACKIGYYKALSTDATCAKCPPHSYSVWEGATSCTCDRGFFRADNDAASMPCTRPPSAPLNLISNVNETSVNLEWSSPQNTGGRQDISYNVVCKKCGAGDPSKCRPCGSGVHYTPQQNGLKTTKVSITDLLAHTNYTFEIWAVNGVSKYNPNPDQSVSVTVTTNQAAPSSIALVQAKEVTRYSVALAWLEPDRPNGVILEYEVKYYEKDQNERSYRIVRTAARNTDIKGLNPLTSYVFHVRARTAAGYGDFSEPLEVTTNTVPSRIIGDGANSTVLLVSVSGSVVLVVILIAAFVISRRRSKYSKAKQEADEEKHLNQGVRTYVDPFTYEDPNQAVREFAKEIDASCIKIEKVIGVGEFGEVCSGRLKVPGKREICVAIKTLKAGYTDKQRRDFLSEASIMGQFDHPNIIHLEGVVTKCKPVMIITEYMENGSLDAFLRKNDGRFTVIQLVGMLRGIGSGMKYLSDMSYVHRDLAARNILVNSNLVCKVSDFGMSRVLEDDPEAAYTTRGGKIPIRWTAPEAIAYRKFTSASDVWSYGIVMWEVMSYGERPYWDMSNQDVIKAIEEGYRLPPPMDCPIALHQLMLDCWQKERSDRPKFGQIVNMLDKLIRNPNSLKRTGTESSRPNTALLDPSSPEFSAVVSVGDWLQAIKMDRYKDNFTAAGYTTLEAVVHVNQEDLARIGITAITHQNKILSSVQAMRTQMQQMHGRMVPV
T38 sequence (Q15375 28-998): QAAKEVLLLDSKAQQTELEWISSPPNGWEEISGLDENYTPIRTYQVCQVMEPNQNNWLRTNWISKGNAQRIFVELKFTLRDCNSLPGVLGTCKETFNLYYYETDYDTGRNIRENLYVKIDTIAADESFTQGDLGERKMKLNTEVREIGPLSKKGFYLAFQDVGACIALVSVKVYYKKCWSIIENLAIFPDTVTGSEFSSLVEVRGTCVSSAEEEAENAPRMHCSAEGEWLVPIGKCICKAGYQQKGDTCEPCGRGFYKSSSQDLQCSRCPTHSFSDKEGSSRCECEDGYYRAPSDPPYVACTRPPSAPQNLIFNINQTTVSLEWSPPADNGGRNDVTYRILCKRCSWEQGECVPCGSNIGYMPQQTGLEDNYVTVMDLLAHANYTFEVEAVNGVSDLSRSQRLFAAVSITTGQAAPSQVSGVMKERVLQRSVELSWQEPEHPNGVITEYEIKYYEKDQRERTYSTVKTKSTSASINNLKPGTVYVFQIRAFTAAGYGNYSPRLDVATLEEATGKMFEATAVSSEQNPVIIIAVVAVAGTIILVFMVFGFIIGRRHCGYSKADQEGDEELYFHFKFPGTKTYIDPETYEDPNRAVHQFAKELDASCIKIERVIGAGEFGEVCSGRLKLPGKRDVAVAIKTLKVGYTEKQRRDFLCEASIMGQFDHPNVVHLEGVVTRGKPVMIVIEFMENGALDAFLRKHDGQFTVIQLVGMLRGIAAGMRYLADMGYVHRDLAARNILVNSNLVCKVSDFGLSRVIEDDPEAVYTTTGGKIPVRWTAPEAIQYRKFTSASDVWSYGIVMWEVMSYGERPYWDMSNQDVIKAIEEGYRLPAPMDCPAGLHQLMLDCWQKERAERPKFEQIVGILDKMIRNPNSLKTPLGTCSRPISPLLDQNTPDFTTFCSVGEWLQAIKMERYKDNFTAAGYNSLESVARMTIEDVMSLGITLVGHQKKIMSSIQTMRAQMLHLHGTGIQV
T20 sequence (P15056 whole entry): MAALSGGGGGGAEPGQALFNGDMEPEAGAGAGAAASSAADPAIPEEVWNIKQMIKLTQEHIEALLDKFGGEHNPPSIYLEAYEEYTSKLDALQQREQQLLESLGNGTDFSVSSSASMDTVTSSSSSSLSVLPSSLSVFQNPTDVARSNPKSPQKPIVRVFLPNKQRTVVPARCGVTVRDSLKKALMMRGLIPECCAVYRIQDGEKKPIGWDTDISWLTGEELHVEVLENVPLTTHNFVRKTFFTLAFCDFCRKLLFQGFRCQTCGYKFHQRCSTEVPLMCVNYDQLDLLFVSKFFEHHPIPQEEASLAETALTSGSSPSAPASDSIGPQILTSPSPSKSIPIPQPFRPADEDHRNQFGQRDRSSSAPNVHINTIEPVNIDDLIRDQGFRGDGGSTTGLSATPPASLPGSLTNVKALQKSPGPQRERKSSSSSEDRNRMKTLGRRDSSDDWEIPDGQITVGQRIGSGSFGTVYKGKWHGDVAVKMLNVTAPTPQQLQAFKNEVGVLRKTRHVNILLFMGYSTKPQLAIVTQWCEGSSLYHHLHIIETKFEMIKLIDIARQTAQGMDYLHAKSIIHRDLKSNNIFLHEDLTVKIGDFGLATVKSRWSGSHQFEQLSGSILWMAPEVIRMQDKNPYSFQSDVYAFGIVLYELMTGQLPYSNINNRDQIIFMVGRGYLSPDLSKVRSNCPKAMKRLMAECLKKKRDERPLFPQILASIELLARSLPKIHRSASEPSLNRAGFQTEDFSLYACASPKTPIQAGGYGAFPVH
T27 sequence (P31751 whole entry): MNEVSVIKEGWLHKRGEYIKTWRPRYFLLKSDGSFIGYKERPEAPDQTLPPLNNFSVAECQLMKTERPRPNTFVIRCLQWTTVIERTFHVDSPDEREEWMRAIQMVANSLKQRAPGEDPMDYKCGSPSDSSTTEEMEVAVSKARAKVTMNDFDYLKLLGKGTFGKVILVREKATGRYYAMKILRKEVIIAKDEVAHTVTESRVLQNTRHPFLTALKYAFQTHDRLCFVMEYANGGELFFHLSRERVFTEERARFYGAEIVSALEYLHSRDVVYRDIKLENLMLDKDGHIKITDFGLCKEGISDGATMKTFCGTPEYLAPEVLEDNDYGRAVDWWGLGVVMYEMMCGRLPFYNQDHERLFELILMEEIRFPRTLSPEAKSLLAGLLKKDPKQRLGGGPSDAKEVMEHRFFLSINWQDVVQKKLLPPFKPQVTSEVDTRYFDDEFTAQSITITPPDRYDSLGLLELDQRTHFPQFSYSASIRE
T31 sequence (P51617 whole entry): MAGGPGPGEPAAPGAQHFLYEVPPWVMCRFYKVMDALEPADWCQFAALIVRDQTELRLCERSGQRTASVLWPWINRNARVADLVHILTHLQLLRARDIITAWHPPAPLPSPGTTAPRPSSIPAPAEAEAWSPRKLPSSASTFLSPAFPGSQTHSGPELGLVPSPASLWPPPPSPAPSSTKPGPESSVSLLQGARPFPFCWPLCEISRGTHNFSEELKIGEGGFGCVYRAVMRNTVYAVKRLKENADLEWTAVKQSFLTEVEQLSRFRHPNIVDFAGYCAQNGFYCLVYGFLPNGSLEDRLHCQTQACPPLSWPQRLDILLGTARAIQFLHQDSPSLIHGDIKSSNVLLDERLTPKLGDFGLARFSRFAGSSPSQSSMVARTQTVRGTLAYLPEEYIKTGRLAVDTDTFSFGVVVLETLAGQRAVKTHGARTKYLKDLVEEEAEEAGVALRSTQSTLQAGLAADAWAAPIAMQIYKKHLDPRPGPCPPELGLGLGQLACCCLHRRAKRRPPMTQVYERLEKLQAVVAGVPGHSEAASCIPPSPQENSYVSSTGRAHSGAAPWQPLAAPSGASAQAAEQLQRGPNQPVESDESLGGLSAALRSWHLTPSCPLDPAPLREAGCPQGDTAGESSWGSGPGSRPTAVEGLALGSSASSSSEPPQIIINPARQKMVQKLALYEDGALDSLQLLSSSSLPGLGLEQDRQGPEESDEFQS
T13 sequence (P15056 whole entry V600E): as the sequence (P15056 whole entry) above, with V600E counted along it

## Cc1ccc(-n2cc(COc3cccc4cnc(Nc5cccc(Cl)c5)nc34)nn2)c([N+](=O)[O-])c1 [DB18]
OSR1
  remaining binding at 1 µM: 100%
MRCKA
  remaining binding at 1 µM: 100%
PKNB(M.tuberculosis)
  remaining binding at 1 µM: 97%
PLK4
  remaining binding at 1 µM: 99%
EPHA8
  remaining binding at 1 µM: 100%
[1]
  remaining binding at 1 µM: 100%
ERBB4
  remaining binding at 1 µM: 100%
HASPIN
  remaining binding at 1 µM: 72%
KIT(V559D,T670I)
  remaining binding at 1 µM: 96%
PRP4
  remaining binding at 1 µM: 100%
PIK3CA(C420R)
  remaining binding at 1 µM: 100%
EPHA4
  remaining binding at 1 µM: 88%
BRAF(V600E)
  remaining binding at 1 µM: 96%
Panel of 468 kinases
  S-Score(25): 0.015
LKB1
  remaining binding at 1 µM: 100%
DRAK1
  remaining binding at 1 µM: 100%
[2]
  remaining binding at 1 µM: 99%
[3]
  remaining binding at 1 µM: 100%
EPHB6
  remaining binding at 1 µM: 95%
GCN2(Kin.Dom.2,S808G)
  remaining binding at 1 µM: 100%
BRAF
  remaining binding at 1 µM: 93%
TAOK3
  remaining binding at 1 µM: 100%
MEK5
  remaining binding at 1 µM: 95%
PRKCI
  remaining binding at 1 µM: 96%
PIK4CB
  remaining binding at 1 µM: 94%
FAK
  remaining binding at 1 µM: 100%
PIK3CA
  remaining binding at 1 µM: 95%
AKT2
  remaining binding at 1 µM: 100%
FRK
  remaining binding at 1 µM: 83%
TNNI3K
  remaining binding at 1 µM: 92%
ACVR1B
  remaining binding at 1 µM: 88%
IRAK1
  remaining binding at 1 µM: 100%
PIM3
  remaining binding at 1 µM: 100%
CAMK1B
  remaining binding at 1 µM: 86%
ERK3
  remaining binding at 1 µM: 100%
CAMK1D
  remaining binding at 1 µM: 100%
MAST1
  remaining binding at 1 µM: 79%
LRRK2
  remaining binding at 1 µM: 100%
EPHA7
  remaining binding at 1 µM: 100%
EPHB4
  remaining binding at 1 µM: 100%
ASK1
  remaining binding at 1 µM: 100%

Reference: PMC9571063 (Molecules, 2022)
